Measurements from patent US7276603B2, “Benzofuranyl-and benzothienyl-piperazinyl quinolines and methods of their use” (Wyeth, priority 2003, dated 2007).

Experiments:
5-HT transporter = 5-HT transporter (Rattus norvegicus, UniProt P31652); experiment: Rat Brain 3H-Paroxetine Binding Assay (RB 5HT Transporter); conditions: rat frontal cortical membranes; 3H-paroxetine 0.1 nM, 60 min, 25° C.
Text: Rat Brain ^3H-Paroxetine Binding Assay (RB 5HT Transporter):
This assay was used to determine a compound's affinity of the 5-HT transporter.
All reactions were terminated by the addition of ice cold Tris buffer followed by rapid filtration using a Tom Tech filtration device to separate bound from free ^3H-paroxetine.

human 5-HT1A receptors = target: T1, human 5-HT1A receptors (Homo sapiens, UniProt P08908); experiment: displacement of [3H] 8-OH-DPAT from the 5-HT1A serotonin receptor; format: binding; conditions: CHO cells stably transfected with human 5-HT1A receptors
T1 construct: expressed in transfected cells; host or cells: CHO cells
T1 sequence (P08908 1-422): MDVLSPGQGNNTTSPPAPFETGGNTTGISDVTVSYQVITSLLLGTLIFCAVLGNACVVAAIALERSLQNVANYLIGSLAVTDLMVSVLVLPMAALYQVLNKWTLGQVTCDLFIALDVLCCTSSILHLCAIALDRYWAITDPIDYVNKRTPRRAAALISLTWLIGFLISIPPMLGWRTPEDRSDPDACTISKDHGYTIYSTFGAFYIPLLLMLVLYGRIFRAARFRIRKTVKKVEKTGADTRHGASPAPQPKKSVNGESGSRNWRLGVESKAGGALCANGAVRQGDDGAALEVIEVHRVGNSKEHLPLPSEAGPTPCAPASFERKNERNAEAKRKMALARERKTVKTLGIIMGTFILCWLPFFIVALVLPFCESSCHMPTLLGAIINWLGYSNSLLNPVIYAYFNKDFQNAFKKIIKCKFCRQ

Chain of 5-HT transporter (P31652 whole entry): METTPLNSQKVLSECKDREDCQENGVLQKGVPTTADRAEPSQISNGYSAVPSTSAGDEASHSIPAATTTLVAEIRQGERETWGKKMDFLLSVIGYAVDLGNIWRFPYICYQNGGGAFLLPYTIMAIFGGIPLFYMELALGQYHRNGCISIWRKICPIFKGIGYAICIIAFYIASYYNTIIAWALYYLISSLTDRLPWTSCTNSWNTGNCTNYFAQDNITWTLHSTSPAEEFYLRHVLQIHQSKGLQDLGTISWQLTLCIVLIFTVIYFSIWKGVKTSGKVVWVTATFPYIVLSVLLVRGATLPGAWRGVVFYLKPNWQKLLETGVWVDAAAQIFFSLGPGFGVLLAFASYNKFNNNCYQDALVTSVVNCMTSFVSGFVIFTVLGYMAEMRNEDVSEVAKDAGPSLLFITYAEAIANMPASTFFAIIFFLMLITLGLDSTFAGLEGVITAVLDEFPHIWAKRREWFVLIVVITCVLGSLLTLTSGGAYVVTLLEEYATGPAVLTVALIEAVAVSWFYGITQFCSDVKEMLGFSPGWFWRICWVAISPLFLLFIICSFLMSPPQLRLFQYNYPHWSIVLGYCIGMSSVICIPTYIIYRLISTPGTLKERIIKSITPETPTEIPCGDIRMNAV

| SMILES | Ki (5-HT transporter) | Ki (human 5-HT1A receptors) |
| --- | --- | --- |
| Fc1cc(N2CCN(CCc3coc4ccccc34)CC2)c2ncccc2c1 [Compound 1, 8-{4-[2-(1-benzofuran-3-yl)ethyl]-1-piperazinyl}-6-fluoroquinoline] | 6.5 nM | – |
| Clc1cc(N2CCN(CCc3coc4ccccc34)CC2)c2ncccc2c1 [Compound 2, 8-{4-[2-(1-benzofuran-3-yl)ethyl]-1-piperazinyl}-6-chloroquinoline] | 176 nM | 124 nM |
| Cc1cc(N2CCN(CCc3coc4ccccc34)CC2)c2ncccc2c1 [Compound 3, 8-{4-[2-(1-benzofuran-3-yl)ethyl]-1-piperazinyl}-6-methylquinoline] | 14 nM | 1.93 nM |
| Clc1cc(N2CCN(CCc3coc4cc(Cl)ccc34)CC2)c2ncccc2c1 [Compound 7, 8-{4-[2-(6-chloro-1-benzofuran-3-yl)ethyl]-1-piperazinyl}-6-chloro-quinoline] | – | 15.4 nM |
| Cc1cc(N2CCN(CCc3coc4cc(Cl)ccc34)CC2)c2ncccc2c1 [Compound 8, 8-{4-[2-(6-chloro-1-benzofuran-3-yl)ethyl]-1-piperazinyl}-6-methyl-quinoline] | 403 nM | 36.7 nM |
| COc1ccc2c(CCN3CCN(c4cc(C)cc5cccnc45)CC3)coc2c1 [Compound 10, 8-{4-[2-(6-methoxy-1-benzofuran-3-yl)ethyl]-1-piperazinyl}-6-methyl-quinoline] | 97 nM | 0.94 nM |
| Clc1ccc2occ(CCN3CCN(c4cccc5cccnc45)CC3)c2c1 [Compound 12, 8-{4-[2-(5-chloro-1-benzofuran-3-yl)ethyl]-1-piperazinyl}-quinoline] | 11 nM | 2.92 nM |
| Clc1cc(N2CCN(CCc3coc4ccc(Cl)cc34)CC2)c2ncccc2c1 [Compound 13, 8-{4-[2-(5-chloro-1-benzofuran-3-yl)ethyl]-1-piperazinyl}-6-chloro-quinoline] | 64 nM | 41.3 nM |
| Fc1cc(N2CCN(CCc3coc4ccc(F)cc34)CC2)c2ncccc2c1 [Compound 17, 8-{4-[2-(5-fluoro-1-benzofuran-3-yl)ethyl]-1-piperazinyl}-6-fluoro-quinoline] | 16.5 nM | 1.59 nM |
| COc1cc(N2CCN(CCc3coc4ccc(OC)cc34)CC2)c2ncccc2c1 [Compound 25, 8-{4-[2-(5-methoxy-1-benzofuran-3-yl)ethyl]-1-piperazinyl}-6-methoxy-quinoline] | 47 nM | 8.71 nM |
| COc1ccc2occ(CCN3CCN(c4cc(F)cc5cccnc45)CC3)c2c1 [Compound 26, 8-{4-[2-(5-methoxy-1-benzofuran-3-yl)ethyl]-1-piperazinyl}-6-fluoro-quinoline] | 16.5 nM | 14.4 nM |
| CC(CN1CCN(c2cccc3cccnc23)CC1)c1coc2ccccc12 (centres unmarked) [Compound 27, 8-{4-[2-(1-benzofuran-3-yl)propyl]-1-piperazinyl}quinoline] | 32 nM | 19.3 nM |
| CC(CN1CCN(c2cc(Cl)cc3cccnc23)CC1)c1coc2ccccc12 (centres unmarked) [Compound 28, 8-{4-[2-(1-benzofuran-3-yl)propyl]-1-piperazinyl}-6-chloro-quinoline] | 73 nM | 110 nM |
| Cc1cc(N2CCN(CC(C)c3coc4ccccc34)CC2)c2ncccc2c1 (centres unmarked) [Compound 30, 8-{4-[2-(1-benzofuran-3-yl)propyl]-1-piperazinyl}-6-methyl-quinoline] | 93 nM | 79.1 nM |
| COc1cccc2c(C(C)CN3CCN(c4cccc5cccnc45)CC3)coc12 (centres unmarked) [Compound 31, 8-{4-[2-(7-methoxy-1-benzofuran-3-yl)propyl]-1-piperazinyl}quinoline] | 4.17 nM | 0.91 nM |
| COc1cccc2c(C(C)CN3CCN(c4cc(C)cc5cccnc45)CC3)coc12 (centres unmarked) [Compound 32, 8-{4-[2-(7-methoxy-1-benzofuran-3-yl)propyl]-1-piperazinyl}-6-methyl-quinoline] | 35 nM | 2.16 nM |
| COc1cccc2c(C(C)CN3CCN(c4cc(C)cc5cccnc45)CC3)coc12 (centres unmarked) [Compound 34, 8-{4-[2-(7-methoxy-1-benzofuran-3-yl)propyl]-1-piperazinyl}-6-methyl-quinoline] | 35 nM | 9.13 nM |
| COc1ccc2occ(CC(C)N3CCN(c4cc(Cl)cc5cccnc45)CC3)c2c1 (centres unmarked) [Compound 39, 6-chloro-8-{4-[2-(5-methoxy-1-benzofuran-3-yl)-1-methylethyl)piperazin-1-yl]quinoline] | 5.5 nM | 0.34 nM |
| COc1ccc2occ(CC(C)N3CCN(c4cc(C)cc5cccnc45)CC3)c2c1 (centres unmarked) [Compound 40, 6-methyl-8-{4-[2-(5-methoxy-1-benzofuran-3-yl)-1-methylethyl)piperazin-1-yl]quinoline] | 130 nM | 1.77 nM |

Continued, values first:

| Ki (5-HT transporter) | Ki (human 5-HT1A receptors) | SMILES |
| --- | --- | --- |
| 60 nM | 2.48 nM | COc1cc(N2CCN(CCc3coc4ccccc34)CC2)c2ncccc2c1 [Compound 4, 8-{4-[2-(1-benzofuran-3-yl)ethyl]-1-piperazinyl}-6-methoxyquinoline] |
| 31 nM | 0.73 nM | Clc1ccc2c(CCN3CCN(c4cccc5cccnc45)CC3)coc2c1 [Compound 5, 8-{4-[2-(6-chloro-1-benzofuran-3-yl)ethyl]-1-piperazinyl}-quinoline] |
| 471 nM | 16.1 nM | Fc1cc(N2CCN(CCc3coc4cc(Cl)ccc34)CC2)c2ncccc2c1 [Compound 6, 8-{4-[2-(6-chloro-1-benzofuran-3-yl)ethyl]-1-piperazinyl}-6-fluoro-quinoline] |
| 33 nM | 0.37 nM | COc1ccc2c(CCN3CCN(c4cccc5cccnc45)CC3)coc2c1 [Compound 9, 8-{4-[2-(6-methoxy-1-benzofuran-3-yl)ethyl]-1-piperazinyl}-quinoline] |
| 37 nM | 0.81 nM | COc1ccc2c(CCN3CCN(c4cc(Cl)cc5cccnc45)CC3)coc2c1 [Compound 11, 8-{4-[2-(6-methoxy-1-benzofuran-3-yl)ethyl]-1-piperazinyl}-6-chloro-quinoline] |
| 45 nM | 13.5 nM | Cc1cc(N2CCN(CCc3coc4ccc(Cl)cc34)CC2)c2ncccc2c1 [Compound 14, 8-{4-[2-(5-chloro-1-benzofuran-3-yl)ethyl]-1-piperazinyl}-6-methyl-quinoline] |
| 17 nM | 0.37 nM | Fc1ccc2occ(CCN3CCN(c4cccc5cccnc45)CC3)c2c1 [Compound 15, 8-{4-[2-(5-fluoro-1-benzofuran-3-yl)ethyl]-1-piperazinyl}-quinoline] |
| 62 nM | 8.05 nM | COc1cc(N2CCN(CCc3coc4ccc(F)cc34)CC2)c2ncccc2c1 [Compound 16, 8-{4-[2-(5-fluoro-1-benzofuran-3-yl)ethyl]-1-piperazinyl}-6-methoxy-quinoline] |
| 0.65 nM | 0.11 nM | COc1cccc2c(CCN3CCN(c4cccc5cccnc45)CC3)coc12 [Compound 18, 8-{4-[2-(7-methoxy-1-benzofuran-3-yl)ethyl]-1-piperazinyl}-quinoline] |
| 3.79 nM | 0.14 nM | COc1cccc2c(CCN3CCN(c4cc(Cl)cc5cccnc45)CC3)coc12 [Compound 20, 8-{4-[2-(7-methoxy-1-benzofuran-3-yl)ethyl]-1-piperazinyl}-6-chloro-quinoline] |
| 28.5 nM | 20 nM | COc1ccc2occ(CCN3CCN(c4cc(C)cc5cccnc45)CC3)c2c1 [Compound 23, 8-{4-[2-(5-methoxy-1-benzofuran-3-yl)ethyl]-1-piperazinyl}-6-methyl-quinoline] |
| 68 nM | 112 nM | CC(CN1CCN(c2cc(F)cc3cccnc23)CC1)c1coc2ccccc12 (centres unmarked) [Compound 29, 8-{4-[2-(1-benzofuran-3-yl)propyl]-1-piperazinyl}-6-fluoro-quinoline] |
| 58 nM | 8.19 nM | COc1cccc2c(C(C)CN3CCN(c4cc(Cl)cc5cccnc45)CC3)coc12 (centres unmarked) [Compound 33, 8-{4-[2-(7-methoxy-1-benzofuran-3-yl)propyl]-1-piperazinyl}-6-chloro-quinoline] |
| – | 1.22 nM | COc1cccc2c(CC(C)N3CCN(c4cccc5cccnc45)CC3)coc12 (centres unmarked) [Compound 35, 8-{4-[2-(7-methoxy-1-benzofuran-3-yl)-1-methylethyl)piperazin-1-yl]quinoline] |
| 4.16 nM | 0.23 nM | COc1cc(N2CCN(C(C)Cc3coc4c(OC)cccc34)CC2)c2ncccc2c1 (centres unmarked) [Compound 36, 6-methoxy-8-{4-[2-(7-methoxy-1-benzofuran-3-yl)-1-methylethyl)piperazin-1-yl]quinoline] |
| 471 nM | – | COc1cccc2c(CC(C)N3CCN(c4cc(C)cc5cccnc45)CC3)coc12 (centres unmarked) [Compound 37, 6-methyl-8-{4-[2-(7-methoxy-1-benzofuran-3-yl)-1-methylethyl)piperazin-1-yl]quinoline] |
| – | 0.14 nM | COc1ccc2occ(CC(C)N3CCN(c4cccc5cccnc45)CC3)c2c1 (centres unmarked) [Compound 38, 8-{4-[2-(5-methoxy-1-benzofuran-3-yl)-1-methylethyl)piperazin-1-yl]quinoline] |
| – | 1.72 nM | Fc1cc(N2CCN([C@H]3CC[C@@H](c4csc5ccc(F)cc54)CC3)CC2)c2ncccc2c1 [Compound 47, 6-fluoro-8-{4-[4-cis(5-fluoro-1-benzothien-3-yl)cyclohexyl]piperazin-1-yl}quinoline] |
